Results taken from patent US10023557B2 (LifeSci Pharmaceuticals, Inc., priority 2015, dated 2018).

Biological target: human plasma kallikrein (Homo sapiens (Human), UniProt P03952)
Assay: In vitro enzyme inhibition of human plasma kallikrein (PFR-AMC cleavage)
Format: biochemical
Conditions: Pro-Phe-Arg-AMC substrate, 37° C., read-out: hPK IC50
Experimental: The ability of the compounds disclosed herein to inhibit human plasma kallikrein activity was quantified according to the procedures below.
A 10 mM solution of the test compound was made in DMSO. […] A control tube containing only DMSO is included. 16 μL of each compound test solution was combined with 384 μL of assay buffer (50 mM Tris-HCl pH 7.5, 150 mM NaCl, 0.01% Triton X-100) to yield a “4× test compound buffer stock”.
These solutions are hereby referred to as 4× hPK and 2×PFR-AMC, respectively.
50 μL was removed from this mixture and placed into duplicate wells on a Microfluor 1Black U-bottom microtiter plate (Thermo Scientific). This plate was incubated for 5 minutes at 37° C. To each well, 50 μL of pre-warmed 2×PFR-AMC was added to start the enzymatic reaction. Cleavage of PFR-AMC was monitored in a Biotek Synergy H4 reader set at 37° C. Readings are taken every 43 seconds for 1 hour. […] The IC50 is calculated using the Gen5 (Biotek Instruments).
The ability of the compounds in Table 3 to inhibit human plasma kallikrein activity was determined.

human plasma kallikrein, sequence (P03952 391-638): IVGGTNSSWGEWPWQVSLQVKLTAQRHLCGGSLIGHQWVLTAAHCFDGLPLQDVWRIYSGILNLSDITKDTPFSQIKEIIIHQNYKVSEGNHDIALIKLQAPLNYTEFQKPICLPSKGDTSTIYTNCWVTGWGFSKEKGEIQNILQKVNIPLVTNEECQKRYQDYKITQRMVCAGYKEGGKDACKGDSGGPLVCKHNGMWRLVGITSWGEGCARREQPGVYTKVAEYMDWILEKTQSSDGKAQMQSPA
human plasma kallikrein, sequence (P03952 20-390 partner): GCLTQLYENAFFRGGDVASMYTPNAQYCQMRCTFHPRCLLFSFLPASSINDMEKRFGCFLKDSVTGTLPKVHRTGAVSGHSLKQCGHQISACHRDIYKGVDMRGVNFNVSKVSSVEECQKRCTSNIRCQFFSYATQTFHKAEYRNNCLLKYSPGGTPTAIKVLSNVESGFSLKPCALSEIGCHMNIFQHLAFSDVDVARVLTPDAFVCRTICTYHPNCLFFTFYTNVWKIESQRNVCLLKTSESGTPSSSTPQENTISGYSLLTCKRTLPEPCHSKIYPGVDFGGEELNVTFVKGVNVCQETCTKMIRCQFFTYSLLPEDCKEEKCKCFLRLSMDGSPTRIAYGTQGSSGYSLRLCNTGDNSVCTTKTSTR

Structure (SMILES)	IC50 [nM]
Cc1nc(NCCO)ccc1CNC(=O)c1ccnc(Cc2ccc3ncc(Cl)cc3c2)c1 [Example 252, 2-((3-chloroquinolin-6-yl)methyl)-N-((6-((2-hydroxyethyl)amino)-2-methylpyridin-3-yl)methyl)isonicotinamide]	> 10000
Cc1cnc2c(C(C)(C)O)cc(Cc3cc(C(=O)NCc4ccc5[nH]cc(Cl)c5c4F)ccn3)cc2c1 [Example 315, N-((3-chloro-4-fluoro-1H-indol-5-yl)methyl)-2-((8-(2-hydroxypropan-2-yl)-3-methylquinolin-6-yl)methyl)isonicotinamide]	< 100
Nc1cnc2ccc(Cc3cc(C(=O)NCc4n[nH]c5ccc(Cl)cc45)ccn3)cc2c1 [Example 299, 2-((3-aminoquinolin-6-yl)methyl)-N-((5-chloro-1H-indazol-3-yl)methyl)isonicotinamide]	1000 to 10000
Nc1nccc2cc(CNC(=O)c3ccnc(Cc4ccc5ncc(N6CCCCC6)cc5c4)c3)ccc12 [Example 303, N-((1-aminoisoquinolin-6-yl)methyl)-2-((3-(piperidin-1-yl)quinolin-6-yl)methyl)isonicotinamide]	1000 to 10000
Nc1nccc2cc(CNC(=O)c3ccnc(Cc4ccc5ncc(N6CCOCC6)cc5c4)c3)ccc12 [Example 293, N-((1-aminoisoquinolin-6-yl)methyl)-2-((3-morpholinoquinolin-6-yl)methyl)isonicotinamide]	1000 to 10000
O=C(NCc1n[nH]c2ccc(Cl)cc12)c1ccnc(Cc2ccc3ncc(N4CCOCC4)cc3c2)c1 [Example 295, N-((5-chloro-1H-indazol-3-yl)methyl)-2-((3-morpholinoquinolin-6-yl)methyl)isonicotinamide]	1000 to 10000
Cc1cc2cncn2cc1CNC(=O)c1ccnc(Cc2ccc3ncc(Cl)cc3c2)c1 [Example 188, 2-((3-chloroquinolin-6-yl)methyl)-N-((7-methylimidazo[1,5-a]pyridin-6-yl)methyl)isonicotinamide]	> 10000
Cc1n[nH]c2ccc(CNC(=O)c3ccnc(Cc4ccc5ncc(Cl)cc5c4)c3)cc12 [Example 261, 2-((3-chloroquinolin-6-yl)methyl)-N-((3-methyl-1H-indazol-5-yl)methyl)isonicotinamide]	1000 to 10000
O=C(NCc1c[nH]c2ncc(Cl)cc12)c1ccnc(Cc2ccc3ncc(Cl)cc3c2)c1 [Example 269, N-((5-chloro-1H-pyrrolo[2,3-b]pyridin-3-yl)methyl)-2-((3-chloroquinolin-6-yl)methyl)isonicotinamide]	1000 to 10000
NCc1ccc(CNC(=O)c2ccnc(Cc3ccc4ncc(Cl)cc4c3)c2)cn1 [Example 169, N-((6-(aminomethyl)pyridin-3-yl)methyl)-2-((3-chloroquinolin-6-yl)methyl)isonicotinamide]	> 10000
O=C(NCc1n[nH]c2ccc(Cl)cc12)c1ccnc(Cc2ccc3ncc(N4CCNCC4)cc3c2)c1 [Example 312, N-((5-chloro-1H-indazol-3-yl)methyl)-2-((3-(piperazin-1-yl)quinolin-6-yl)methyl)isonicotinamide]	1000 to 10000
O=C(NCc1cnc2[nH]cc(Cl)c2c1)c1ccnc(Cc2ccc3ncc(N4CCCCC4)cc3c2)c1 [Example 306, N-((3-chloro-1H-pyrrolo[2,3-b]pyridin-5-yl)methyl)-2-((3-(piperidin-1-yl)quinolin-6-yl)methyl)isonicotinamide]	1000 to 10000
O=C(NCc1cc2c(Cl)c[nH]c2cc1F)c1ccnc(Cc2ccc3ncc(N4CCCCC4)cc3c2)c1 [Example 302, N-((3-chloro-6-fluoro-1H-indol-5-yl)methyl)-2-((3-(piperidin-1-yl)quinolin-6-yl)methyl)isonicotinamide]	1000 to 10000
Cc1ccn2c(C(F)(F)F)nc(CNC(=O)c3ccnc(Cc4ccc5ncc(Cl)cc5c4)c3)c2c1 [Example 160, 2-((3-chloroquinolin-6-yl)methyl)-N-((7-methyl-3-(trifluoromethyl)imidazo[1,5-a]pyridin-1-yl)methyl)isonicotinamide]	> 10000

The remaining lines, values ahead:

IC50 [nM]	Structure (SMILES)
1000 to 10000	Cc1cc(C(C)N)nc(C)c1CNC(=O)c1ccnc(Cc2ccc3ncc(Cl)cc3c2)c1 (stereo not drawn) [Example 173, N-((6-(1-aminoethyl)-2,4-dimethylpyridin-3-yl)methyl)-2-((3-chloroquinolin-6-yl)methyl)isonicotinamide]
1000 to 10000	Cc1cc(C)c(CNC(=O)c2ccnc(Cc3ccc4ncc(Cl)cc4c3)c2)c(C)n1 [Example 194, 2-((3-chloroquinolin-6-yl)methyl)-N-((2,4,6-trimethylpyridin-3-yl)methyl)isonicotinamide]
< 100	Cc1nc2c(c(C)c1CNC(=O)c1ccnc(Cc3ccc4ncc(Cl)cc4c3)c1)CCCN2 [Example 195, 2-((3-chloroquinolin-6-yl)methyl)-N-((2,4-dimethyl-5,6,7,8-tetrahydro-1,8-naphthyridin-3-yl)methyl)isonicotinamide]
100 to 1000	Nc1ncc2cc(CNC(=O)c3ccnc(Cc4ccc5ncc(Cl)cc5c4)c3)ccn12 [Example 187, N-((3-aminoimidazo[1,5-a]pyridin-7-yl)methyl)-2-((3-chloroquinolin-6-yl)methyl)isonicotinamide]
100 to 1000	NCc1ccc(CNC(=O)c2ccnc(Cc3ccc4ncc(Cl)cc4c3)c2)cc1 [Example 168, N-(4-(aminomethyl)benzyl)-2-((3-chloroquinolin-6-yl)methyl)isonicotinamide]
100 to 1000	O=C(NCc1cnc2[nH]cc(Cl)c2c1)c1ccnc(Cc2ccc3ncc(N4CCCC4)cc3c2)c1 [Example 310, N-((3-chloro-1H-pyrrolo[2,3-b]pyridin-5-yl)methyl)-2-((3-(pyrrolidin-1-yl)quinolin-6-yl)methyl)isonicotinamide]
100 to 1000	Cc1nc(N)ccc1CNC(=O)c1ccnc(Cc2cc(-c3nnn[nH]3)c3ncc(Cl)cc3c2)c1 [Example 273, N-((6-amino-2-methylpyridin-3-yl)methyl)-2-((3-chloro-8-(1H-tetrazol-5-yl)quinolin-6-yl)methyl)isonicotinamide]
100 to 1000	Cc1cc(N)nc(C)c1CNC(=O)c1ccnc(Cc2ccc3ncc(C(N)=O)cc3c2)c1 [Example 250, 6-((4-(((6-amino-2,4-dimethylpyridin-3-yl)methyl)carbamoyl)pyridin-2-yl)methyl)quinoline-3-carboxamide]
100 to 1000	Cc1cc(N)nc(C)c1CNC(=O)c1ccnc(Cc2cnc3[nH]c(Cl)cc3c2)c1 [Example 150, N-((6-amino-2,4-dimethylpyridin-3-yl)methyl)-2-((2-chloro-1H-pyrrolo[2,3-b]pyridin-5-yl)methyl)isonicotinamide]
100 to 1000	Cc1nc2c(cc1CNC(=O)c1ccnc(Cc3ccc4ncc(C(F)(F)F)cc4c3)c1)CCN2 [Example 162, N-((6-methyl-2,3-dihydro-1H-pyrrolo[2,3-b]pyridin-5-yl)methyl)-2-((3-(trifluoromethyl)quinolin-6-yl)methyl)isonicotinamide]
< 100	Cc1cnc2c(C(C)(C)O)cc(Cc3cc(C(=O)NCc4n[nH]c5ccc(Cl)cc45)ccn3)cc2c1 [Example 317, N-((5-chloro-1H-indazol-3-yl)methyl)-2-((8-(2-hydroxypropan-2-yl)-3-methylquinolin-6-yl)methyl)isonicotinamide]
< 100	CC1=CC2C=NN(Cc3cc(C(=O)NCc4c(C)cc(N)nc4C)ccn3)C2C=C1 (stereo not drawn) [Example 201, N-((6-amino-2,4-dimethylpyridin-3-yl)methyl)-2-((5-methyl-3a,7a-dihydro-1H-indazol-1-yl)methyl)isonicotinamide]
100 to 1000	Cc1ccn2nnc(CNC(=O)c3ccnc(Cc4ccc5ncc(Cl)cc5c4)c3)c2c1 [Example 155, 2-((3-chloroquinolin-6-yl)methyl)-N-((5-methyl-[1,2,3]triazolo[1,5-a]pyridin-3-yl)methyl)isonicotinamide]
< 100	Cc1cnc2c(C(C)(C)O)cc(Cc3cc(C(=O)NCc4cc5c(Cl)c[nH]c5cc4F)ccn3)cc2c1 [Example 314, N-((3-chloro-6-fluoro-1H-indol-5-yl)methyl)-2-((8-(2-hydroxypropan-2-yl)-3-methylquinolin-6-yl)methyl)isonicotinamide]
100 to 1000	Cc1nc2[nH]cc(Cl)c2c(C)c1CNC(=O)c1ccnc(Cc2ccc3ncc(Cl)cc3c2)c1 [Example 192, N-((3-chloro-4,6-dimethyl-1H-pyrrolo[2,3-b]pyridin-5-yl)methyl)-2-((3-chloroquinolin-6-yl)methyl)isonicotinamide]
< 100	COc1cnc2ccc(Cc3cc(C(=O)NCc4ccc(N)nc4C)ccn3)cc2c1 [Example 265, N-(6-amino-2-methyl-pyridin-3-ylmethyl)-2-(3-methoxy-quinolin-6-ylmethyl)-isonicotinamide]
100 to 1000	O=C(NCc1nnc2ccc(Cl)cn12)c1ccnc(Cc2ccc3ncc(Cl)cc3c2)c1 [Example 154, N-((6-chloro-[1,2,4]triazolo[4,3-a]pyridin-3-yl)methyl)-2-((3-chloroquinolin-6-yl)methyl)isonicotinamide]
< 100	Cc1nc2c(c(C)c1CNC(=O)c1ccnc(Cc3ccc4ncc(Cl)cc4c3)c1)CCN2 [Example 175, 2-((3-chloroquinolin-6-yl)methyl)-N-((4,6-dimethyl-2,3-dihydro-1H-pyrrolo[2,3-b]pyridin-5-yl)methyl)isonicotinamide]
100 to 1000	O=C(NCc1ccc2[nH]cc(Cl)c2c1F)c1ccnc(Cc2ccc3ncc(N4CCCC4)cc3c2)c1 [Example 311, N-((3-chloro-4-fluoro-1H-indol-5-yl)methyl)-2-((3-(pyrrolidin-1-yl)quinolin-6-yl)methyl)isonicotinamide]
